# According to patent US10765690B2, “TLR4 agonists and compositions thereof and their use in the treatment of cancer” (GlaxoSmithKline Intellectual Property Development Limited, priority 2015, dated 2020):
# Where “and” joins values, the source holds several entries; their conditions need not be identical. Equal entries are not always repeated.
# What was measured:
# Assay type in all cases: in vivo, Balb/c mice
# [1] = test system: Murine EMT6 breast epithelial cells; test: EMT6 breast epithelial syngeneic solid tumor model
# Protocol: The in vivo anti-tumor efficacy of the TLR4 agonist (CRX-601) was assessed in the murine EMT6 breast epithelial syngeneic solid tumor model as a monotherapy versus control and anti-PD-1 treatment. Seven to eight week old female Balb/c mice (BALB/cAnNHsd, Envigo) were used in these studies. Murine EMT6 breast epithelial cells (ATCC catalog number lot # CRL-2755) were cultured in RPMI growth medium supplemented with 10% fetal bovine serum (FBS) in a humidified 37° C. incubator with 5% CO2. EMT6 cells cultured in logarithmic growth were harvested from tissue culture flasks and centrifuged for 5 minutes at 450×g at 4° C. for ten minutes to pellet cells. The supernatant was discarded, and cells were washed in ice cold phosphate buffered saline (PBS) without calcium and magnesium and centrifuged again for 5 minutes at 450×g at 4′C for ten minutes to pellet cells. The cells were resuspended in sterile RPMI media without FBS and adjusted to a cell concentration of 1×10^6 cells/ml. 100 μl of the cell stock was implanted via subcutaneous injection into the right flank of each Balb/c mouse. After seven or nine days when the average tumor size reached approximately 100 mm^3, mice were randomized into study cohorts according to tumor size and the first treatment dose was given. The TLR4 agonist (CRX-601) or vehicle was dosed via a systemic intravenous dose once per week for three total doses. The CRX-601 vehicle was 0.5% Glycerol/4% Dextrose, eE 810115-V. The rat anti-mouse PD-1 receptor antibody (clone RMP1-14, BioXCell catalog # BE0146, lot #5792-599016J1) or Rat IgG2a isotype control antibody (BioXCell catalog # BE0089,lot #601416M1B) was dosed via an intraperitoneal injection given every other day for a total of three doses, with the first dose given concurrently with the first CRX-601 dose. Caliper measurements were taken three times per week to assess tumor growth, and mice with tumors >2,000 mm^3 for 2 consecutive measurements or mice with tumors which formed open ulcers were removed from the study. Tumor volume was calculated using the formula (0.52)×(Length)×(Width2). All studies were conducted in accordance with the GSK Policy on the Care, Welfare and Treatment of Laboratory Animals and were reviewed by the Institutional Animal Care and Use Committee at GSK. To determine significance of tumor growth inhibition, tumor volumes 19 days post first dose were compared between the different treatment groups. Treatments were compared by standard ANOVA methods followed by FDR adjustment for multiplicity. Response is square root of volume, for homoscedasticity (equal variance) reasons. Kaplan-Meier (KM) method was carried out to estimate the survival probability of different treatment groups at a given time. For these survival analyses, “Death” means crossing the tumor volume cutoff (2000 mm3). “Survival” means proportion of mice not “Dead”, and “Survival time” means days until “Death”. If a mouse crossed the volume cutoff between two measurement days, then the day of “Death” was estimated by linear interpolation. If a mouse crossed the volume cutoff more than once, the first crossing was used. Treatments were compared by the standard log-rank test for two treatments. The log-rank p-values were adjusted for multiplicity using the FDR (false discovery rate) method. Significance was defined as FDR<=0.05. All calculations and graphs were done using R software, version 3.2.3.
# [2] = test system: CT-26 colorectal tumor cells; test: CT-26 syngeneic colon carcinoma model, escalating i.p. doses (Example 9); conditions: CRX-601, similar experiment; 4, 20 or 100 ug
# [3] = test system: CT-26 colorectal tumor cells; test: as above
# Source text: The CT26 mouse colon carcinoma (CT26.WT; ATCC #CRL-2638) cell line was obtained from ATCC. It is an N-nitroso-N-methylurethane-(NNMU) induced, undifferentiated colon carcinoma cell line known in the art. For example, it is described in: Wang M, et al. Active immunotherapy of cancer with a nonreplicating recombinant fowlpox virus encoding a model tumor-associated antigen. J. Immunol. 154: 4685-4692, 1995 (PubMed: 7722321), which is incorporated by reference in its entirety herein. For preparation of tumor cells, A frozen (−140° C.) vial of CT-26 (mouse colon carcinoma cells), from ATCC (cat # CRL-2638, lot #59227052) are thawed and cultured in basic RPMI (with 10% FBS) media over the following week.
# CT-26 cells (passage 12) are harvested from the flask in complete medium. Cells are centrifuged and resuspended in RPMI (without FBS), this step is repeated 3 times. Cell density and viability are checked via trypan blue exclusion. Cells are then diluted to desired density (5×10^5 cells per mL) and kept on ice.
# Escalating doses of CRX 527 are evaluated for their efficacy in reducing tumor growth. Animals are weighed and innoculated on the right hind quarter with 0.5×10^5 CT26 tumor cells per mouse on Day 0. A total of 130 mice are inoculated with tumor cells—assuming 30% failure rate (either too big or too small at time of start of study), the goal is to have n=10 for each group. After tumor cell innoculation, tumor growth and total body weight are measured 3 times a week for the duration of the study. Randomization occurs on day 10 or 11 when the average tumor volume is approximately 100 mm^3. Begining on the day of randomization, animals are dosed with CRX 527 or vehicle i.p. biweekly, for a total of 6 doses. Mice remain on study until tumors reach >2000 cu mm for two consecutive measurements, they are removed from study for other reasons (i.e. weight loss >20%, ulceration on tumor, etc.) or until the end of the study. After euthanization the tumors may be removed and subject to dissociation for flow analysis and/or FFPE for IHC analysis.
# The above protocol was used to generate the results in FIG. 17 at the dosages indicated. In almost every case, Balb/c mice that were inoculated with 0.5×10^5 CT-26 colorectal tumor cells on the right hind quarter developed tumors that, when treated i.p. with vehicle (2% glycerol) only, and progressed as expected. […] FIG. 17.
compound,measurement,setting,value
CCCCCCCCCCC[C@H](CC(=O)N[C@H]1[C@H](OC[C@H](NC(=O)C[C@@H](CCCCCCCCCCC)OCCCCCCCCCC)C(=O)O)O[C@H](CO)[C@@H](OP(=O)(O)O)[C@@H]1OC(=O)C[C@@H](CCCCCCCCCCC)OCCCCCCCCCC)OCCCCCCCCCC [CRX-601],increase in survival compared to vehicle group 1,"[1]; 25 ug CRX-601 IV, by day 33 post EMT6 inoculation, p-value=0.03",statistically significant
same,mice remained on study,"[1]; 25 ug CRX-601 group, day 33",6 mice
same,tumor free mice,"[1]; 25 ug CRX-601 group, day 33",4 mice
same,tumor volumes of remaining tumor-bearing mice,"[1]; 25 ug CRX-601 group, day 33, individual mice",649 mm^3 and 382 mm^3
same,tumor growth inhibition compared to vehicle group 1,"[1]; 25 ug CRX-601 intravenous once per week x3 (+200 ug Rat IgG2a), 19 days after the initial dose, p-value<0.001",statistically significant tumor growth inhibition
same,tumor growth inhibition compared to anti-PD-1 treatment group 3,"[1]; 25 ug CRX-601 intravenous once per week x3, 19 days after the initial dose, p-value=0.041",statistically significant tumor growth inhibition
same,tumor growth,[2],inhibited tumor growth
same,Mean % Inhibition,"[3]; 4 ug, study day 14 (9/16)",−59.63%
same,Mean % Inhibition,"[3]; 4 ug, study day 17 (9/19)",4.57%
same,Mean % Inhibition,"[3]; 4 ug, study day 21 (9/23)",−1.55%
same,Mean % Inhibition,"[3]; 4 ug, study day 24 (9/26)",21.73%
same,Mean % Inhibition,"[3]; 4 ug, study day 28 (9/30)",7.65%
same,Mean % Inhibition,"[3]; 4 ug, study day 31 (10/3)",−34.14%
same,Mean % Inhibition,"[3]; 20 ug, study day 14 (9/16)",42.34%
same,Mean % Inhibition,"[3]; 20 ug, study day 17 (9/19)",69.46%
same,Mean % Inhibition,"[3]; 20 ug, study day 21 (9/23)",50.75%
same,Mean % Inhibition,"[3]; 20 ug, study day 24 (9/26)",66.96%
same,Mean % Inhibition,"[3]; 20 ug, study day 28 (9/30)",50.75%
same,Mean % Inhibition,"[3]; 20 ug, study day 31 (10/3)",−18.27%
same,Mean % Inhibition,"[3]; 100 ug, study day 14 (9/16)",68.20%
same,Mean % Inhibition,"[3]; 100 ug, study day 17 (9/19)",92.51%
same,Mean % Inhibition,"[3]; 100 ug, study day 21 (9/23)",98.50%
same,Mean % Inhibition,"[3]; 100 ug, study day 24 (9/26)",93.21%
same,Mean % Inhibition,"[3]; 100 ug, study day 28 (9/30)",94.68%
same,Mean % Inhibition,"[3]; 100 ug, study day 31 (10/3)",80.15%
